Test results published in US7919486B2, “Use of gallium(III) complexes for the treatment of melanomas” (Niiki Pharma Inc., priority 2007, dated 2011).

Columns and labels:
SK-MEL-5 = assay: cytotoxic activity in cell culture on melanoma cell line SK-MEL-5; type: cell-based; conditions: SK-MEL-5 melanoma cell line obtained from human tumors
Experimental: (§1) The compound of tris(hydroxyquinolinolato)gallium(III) was analyzed with respect to its cytotoxic activity in the cell culture on the melanoma cell lines obtained from human tumors.

SK-MEL-28 = assay: cytotoxic activity in cell culture on melanoma cell line SK-MEL-28; type: cell-based; conditions: SK-MEL-28 melanoma cell line obtained from human tumors
Experimental: as §1

c1cnc2c([O][Ga]([O]c3cccc4cccnc34)[O]c3cccc4cccnc34)cccc2c1 [tris(hydroxyquinolinolato)gallium(III)]
IC50 (SK-MEL-5): 0.76 µM
IC50 (SK-MEL-28): 35 µM
